Measurements published in ChEMBL document CHEMBL5712891, “Inhibition of BET bromodomain-dependent XIAP and FLIP expression sensitizes KRAS-mutated NSCLC to pro-apoptotic agents” (Cell Death Dis, 2016).
Calls of active or inactive are those of the source. The calls are words filed in the database; no cut-off is given here.

Assays:
[1] = tested on: NCI-H1373; assay: Downregulation of XIAP protein expression level in human NCI-H1373 cells at 1 uM for 24 hrs by […] analysis; format: functional, cell-based
[2] = Toxicity in SCID mouse xenografted with human A549 cells assessed as body weight loss administered at 50 mg/kg, ip for 28 days relative to control; format: organism-based; details: in vivo, 672 h, time 28 day
[3] = tested on: DV-90; assay: Induction of cell cycle arrest in human DV-90 cells assessed as accumulation of cells at S phase at 0.1 uM for 24 hrs by Click-iT EdU Alexa Fluor 647 flow cytometric assay kit analysis (reference value: 31%); format: functional
[4] = tested on: NCI-H1373; assay: Induction of TRAIL dependent apoptosis in human NCI-H1373 cells assessed as late apoptotic cells at 1 uM by annexin V-PI staining based flow cytometric analysis (reference value: 8.3%); format: functional
[5] = tested on: DV-90; assay: Induction of cell cycle arrest in human DV-90 cells assessed as accumulation of cells at S phase at 0.5 uM for 24 hrs by Click-iT EdU Alexa Fluor 647 flow cytometric assay kit analysis (reference value: 31%); format: functional
[6] = tested on: NCI-H358; assay: Antiproliferative activity against human NCI-H358 cells at 500 to 2500 nM in presence of TNF by cell titre glo assay; format: functional, cell-based; details: dose 500-2500 nM
[7] = tested on: NCI-H460; assay: Induction of cell cycle arrest in human NCI-H460 cells assessed as accumulation of cells at S phase at 0.25 uM for 24 hrs by Click-iT EdU Alexa Fluor 647 flow cytometric assay kit analysis (reference value: 56%); format: functional
[8] = tested on: NCI-H2030; assay: Downregulation of c-MYC mRNA expression level in human NCI-H2030 cells at 0.1 to 1 uM for 24 hrs by qRT-PCR analysis; format: functional, cell-based; details: dose 0.1-1 µM
[9] = tested on: NCI-H460; assay: Induction of cell cycle arrest in human NCI-H460 cells assessed as accumulation of cells at G0/G1 phase at 1 uM for 24 hrs by Click-iT EdU Alexa Fluor 647 flow cytometric assay kit analysis (reference value: 43%); format: functional
[10] = tested on: NCI-H1373; assay: Induction of TRAIL dependent apoptosis in human NCI-H1373 cells by annexin V-PI staining based flow cytometric analysis; format: functional, cell-based
[11] = tested on: A549; assay: Induction of cell cycle arrest in human A549 cells assessed as accumulation of cells at G2/M phase at 0.1 uM for 24 hrs by Click-iT EdU Alexa Fluor 647 flow cytometric assay kit analysis (reference value: 3%); format: functional
[12] = tested on: DV-90; assay: Induction of cell cycle arrest in human DV-90 cells assessed as accumulation of cells at S phase at 0.25 uM for 24 hrs by Click-iT EdU Alexa Fluor 647 flow cytometric assay kit analysis (reference value: 31%); format: functional
[13] = tested on: NCI-H460; assay: Induction of cell cycle arrest in human NCI-H460 cells assessed as accumulation of cells at S phase at 0.5 uM for 24 hrs by Click-iT EdU Alexa Fluor 647 flow cytometric assay kit analysis (reference value: 56%); format: functional
[14] = tested on: NCI-H460; assay: Induction of cell cycle arrest in human NCI-H460 cells assessed as accumulation of cells at S phase at 0.1 uM for 24 hrs by Click-iT EdU Alexa Fluor 647 flow cytometric assay kit analysis (reference value: 56%); format: functional
[15] = tested on: NCI-H460; assay: Induction of cell cycle arrest in human NCI-H460 cells assessed as accumulation of cells at G0/G1 phase at 0.25 uM for 24 hrs by Click-iT EdU Alexa Fluor 647 flow cytometric assay kit analysis (reference value: 43%); format: functional
[16] = tested on: NCI-H1373; assay: Induction of cell cycle arrest in human NCI-H1373 cells assessed as accumulation of cells at G2/M phase at 0.25 uM for 24 hrs by Click-iT EdU Alexa Fluor 647 flow cytometric assay kit analysis (reference value: 13%); format: functional
[17] = tested on: NCI-H460; assay: Induction of cell cycle arrest in human NCI-H460 cells assessed as accumulation of cells at G0/G1 phase at 0.5 uM for 24 hrs by Click-iT EdU Alexa Fluor 647 flow cytometric assay kit analysis (reference value: 43%); format: functional
[18] = tested on: NCI-H460; assay: Induction of cell cycle arrest in human NCI-H460 cells assessed as accumulation of cells at G2/M phase at 1 uM for 24 hrs by Click-iT EdU Alexa Fluor 647 flow cytometric assay kit analysis (reference value: 1%); format: functional
[19] = tested on: NCI-H460; assay: Induction of cell cycle arrest in human NCI-H460 cells assessed as accumulation of cells at G2/M phase at 0.5 uM for 24 hrs by Click-iT EdU Alexa Fluor 647 flow cytometric assay kit analysis (reference value: 1%); format: functional
[20] = tested on: NCI-H460; assay: Induction of cell cycle arrest in human NCI-H460 cells assessed as accumulation of cells at S phase at 1 uM for 24 hrs by Click-iT EdU Alexa Fluor 647 flow cytometric assay kit analysis (reference value: 56%); format: functional
[21] = tested on: A549; assay: Downregulation of XIAP mRNA expression level in human A549 cells at 0.1 to 1 uM for 24 hrs by qRT-PCR analysis; format: functional, cell-based; details: dose 0.1-1 µM
[22] = tested on: NCI-H460; assay: Induction of cell cycle arrest in human NCI-H460 cells assessed as accumulation of cells at G0/G1 phase at 0.1 uM for 24 hrs by Click-iT EdU Alexa Fluor 647 flow cytometric assay kit analysis (reference value: 43%); format: functional
[23] = tested on: NCI-H23; assay: Downregulation of FLIP mRNA expression level in human NCI-H23 cells at 0.1 to 1 uM for 24 hrs by qRT-PCR analysis; format: functional, cell-based; details: dose 0.1-1 µM
[24] = tested on: DV-90; assay: Induction of cell cycle arrest in human DV-90 cells assessed as accumulation of cells at S phase at 1 uM for 24 hrs by Click-iT EdU Alexa Fluor 647 flow cytometric assay kit analysis (reference value: 31%); format: functional
[25] = tested on: NCI-H460; assay: Induction of cell cycle arrest in human NCI-H460 cells assessed as accumulation of cells at G2/M phase at 0.25 uM for 24 hrs by Click-iT EdU Alexa Fluor 647 flow cytometric assay kit analysis (reference value: 1%); format: functional
[26] = tested on: A549; assay: Induction of apoptosis in human A549 cells assessed as early apoptotic cells at 2.5 uM for 24 hrs by annexin V-PI staining based flow cytometric analysis (reference value: 0.4%); format: functional
[27] = tested on: NCI-H460; assay: Induction of cell cycle arrest in human NCI-H460 cells assessed as accumulation of cells at G2/M phase at 0.1 uM for 24 hrs by Click-iT EdU Alexa Fluor 647 flow cytometric assay kit analysis (reference value: 1%); format: functional
[28] = tested on: NCI-H460; assay: Induction of apoptosis in human NCI-H460 cells assessed as necrotic cells at 2.5 uM for 24 hrs by annexin V-PI staining based flow cytometric analysis (reference value: 3.2%); format: functional
[29] = tested on: DV-90; assay: Induction of cell cycle arrest in human DV-90 cells assessed as accumulation of cells at G2/M phase at 1 uM for 24 hrs by Click-iT EdU Alexa Fluor 647 flow cytometric assay kit analysis (reference value: 21%); format: functional
[30] = tested on: NCI-H460; assay: Induction of cell cycle arrest in human NCI-H460 cells assessed as accumulation of cells at S phase at 1 uM for 24 hrs by Click-iT EdU Alexa Fluor 647 flow cytometric assay kit analysis (reference value: 54%); format: functional

Q: Which Activity [1] does the source give for Cc1sc2c(c1C)C(c1ccc(Cl)cc1)=N[C@@H](CC(=O)OC(C)(C)C)c1nnc(C)n1-2 here?
A: Its Activity is “Active”.

Q: And the Activity [2]?
A: Its Activity is 5%.

Q: What about the Activity [3] of the same molecule?
A: The Activity was 27%.

Q: And the Activity [4]?
A: Its Activity is 14%.

Q: What about the Activity [5] of the same molecule?
A: Its Activity is 18%.

Q: And the Activity [6]?
A: Its Activity is “Active”.

Q: And the Activity [7]?
A: Its Activity is 57%.

Q: And the Activity [8]?
A: Its Activity is “Active”.

Q: And the Activity [9]?
A: Its Activity is 45%.

Q: And the Activity [10]?
A: The Activity was “Active”.

Q: What about the Activity [11] of the same molecule?
A: The Activity was 2%.

Q: What about the Activity [12] of the same molecule?
A: The Activity was 24%.

Q: And the Activity [13]?
A: Its Activity is 54%.

Q: And the Activity [14]?
A: The Activity was 55%.

Q: What about the Activity [15] of the same molecule?
A: The Activity was 41%.

Q: What about the Activity [16] of the same molecule?
A: The Activity was 16%.

Q: What about the Activity [17] of the same molecule?
A: Its Activity is 45%.

Q: What about the Activity [18] of the same molecule?
A: Its Activity is 1%.

Q: What about the Activity [19] of the same molecule?
A: Its Activity is 1%.

Q: What about the Activity [20] of the same molecule?
A: The Activity was 54%.

Q: What about the Activity [21] of the same molecule?
A: The Activity was “Active”.

Q: And the Activity [22]?
A: The Activity was 44%.

Q: And the Activity [23]?
A: The Activity was “Active”.

Q: What about the Activity [24] of the same molecule?
A: Its Activity is 15%.

Q: And the Activity [25]?
A: Its Activity is 1%.

Q: And the Activity [26]?
A: Its Activity is 0.2%.

Q: What about the Activity [27] of the same molecule?
A: The Activity was 1%.

Q: For Cc1sc2c(c1C)C(c1ccc(Cl)cc1)=N[C@@H](CC(=O)Nc1ccc(O)cc1)c1nnc(C)n1-2 [BIRABRESIB], which Activity [28] is on record?
A: The Activity was 3.9%.

Q: And the Activity [3]?
A: The Activity was 20%.

Q: And the Activity [5]?
A: Its Activity is 17%.

Q: And the Activity [12]?
A: The Activity was 21%.

Q: And the Activity [18]?
A: The Activity was 1%.

Q: What about the Activity [19] of the same molecule?
A: The Activity was 3%.

Q: What about the Activity [29] of the same molecule?
A: Its Activity is 22%.

Q: And the Activity [24]?
A: The Activity was 17%.

Q: What about the Activity [25] of the same molecule?
A: The Activity was 1%.

Q: And the Activity [27]?
A: The Activity was 1%.

Q: Which results are given for CCNC(=O)C[C@@H]1N=C(c2ccc(Cl)cc2)c2cc(OC)ccc2-n2c(C)nnc21 [MOLIBRESIB]?
A: Activity [7]: 54%; Activity [9]: 51%; Activity [13]: 49%; Activity [14]: 53%; Activity [15]: 45%; Activity [17]: 49%; Activity [18]: 1%; Activity [19]: 1%; Activity [20]: 47%; Activity [22]: 46%; Activity [25]: 1%; Activity [27]: 1%; Activity [30]: 47%
